Reference: US10947252B2, “Inhibitors of KEAP1-Nrf2 protein-protein interaction” (Janssen Pharmaceutica NV, priority 2018, dated 2021)

Key:
[1] = target: Kelch domain of human KEAP1 (321-624 aa) (Homo sapiens (Human), UniProt Q14145); experiment: KEAP1 KELCH ThermoFluor binding assay; conditions: KEAP Kelch […], 1,8-ANS, pH 7.0, average of results obtained, read-out: Tf Kd;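 further: Ligand-induced melting temperature shift of E. coli-expressed KEAP1 Kelch protein, Kd estimated from concentration-response curves of ΔTm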
Kelch domain of human KEAP1 (321-624 aa), sequence (Q14145 321-624): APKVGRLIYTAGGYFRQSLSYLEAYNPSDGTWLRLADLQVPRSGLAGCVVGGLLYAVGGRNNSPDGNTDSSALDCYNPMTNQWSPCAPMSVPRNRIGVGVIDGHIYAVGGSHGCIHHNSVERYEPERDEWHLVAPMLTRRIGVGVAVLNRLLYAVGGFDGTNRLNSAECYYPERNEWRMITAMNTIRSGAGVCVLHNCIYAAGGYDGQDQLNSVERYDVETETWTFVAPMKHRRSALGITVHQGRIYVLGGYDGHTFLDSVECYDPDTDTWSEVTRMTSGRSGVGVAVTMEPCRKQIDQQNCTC

[2] = test system: Glo-Response ARE-luc2P HEK293 cell line; experiment: ARE luciferase reporter cell-based assay; conditions: Homo sapiens, HEK293, 24 h, average of results obtained;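 further: luciferase signal tracks Nrf2 activation of the ARE once compounds disrupt KEAP1-Nrf2 binding, read with One-Glo reagent, DMSO serving as low control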

Cc1ccc([C@H](CC(=O)O)c2cc(OC3CC3)c3c(c2)nnn3C)cc1CN1C[C@H]2CCCCN2c2ncccc2S1(=O)=O (single isomer, unassigned) [Example 405, (*S)-3-(7-Cyclopropoxy-1-methyl-1H-benzo[d][1,2,3]triazol-5-yl)-3-(3-(((*R)-5,5-dioxido-7,7a,8,9,10,11-hexahydro-6H-dipyrido[2,1-d:2′,3′-f][1,2,5]thiadiazepin-6-yl)methyl)-4-methylphenyl)propanoic Acid]
Kd [1]: < 1 nM | EC50 [2]: 7.4 nM

Cc1ccc(C(CC(=O)O)c2ccn3c(C(F)F)nnc3c2C)cc1CN1CC2(CC2)Oc2ncc(C(N)=O)cc2S1(=O)=O (centres unmarked) [Example 551, 3-(3-((8′-Carbamoyl-1′,1′-dioxidospiro[cyclopropane-1,4′-pyrido[2,3-b][1,4,5]oxathiazepin]-2′(3′H)-yl)methyl)-4-methylphenyl)-3-(3-(difluoromethyl)-8-methyl-[1,2,4]triazolo[4,3-a]pyridin-7-yl)propanoic Acid]
Kd [1]: 453 nM | EC50 [2]: > 20000 nM

Cc1ccc([C@@H](c2ccn3c(C(F)F)nnc3c2C)C(C)(C)C(=O)O)cc1CN1CC2(COC2)Oc2ncccc2S1(=O)=O (single isomer, unassigned) [Example 616, (*S)-3-(3-(difluoromethyl)-8-methyl-[1,2,4]triazolo[4,3-a]pyridine-7-yl)-3-(3-((1′,1′-dioxidospiro[oxetane-3,4′-pyrido[2,3-b][1,4,5]oxathiazepin]-2′(3′H)-yl)methyl)-4-methylphenyl)-2,2-dimethylpropanoic Acid]
Kd [1]: < 1 nM | EC50 [2]: 2.14 nM

CCn1nnc2c(C)c(C(CC(=O)O)c3ccc(C)c(CN4CC5(CCOCC5)Oc5ccc(F)cc5S4(=O)=O)n3)ccc21 (racemic) [Example 417, 3-(1-Ethyl-4-methyl-1H-benzo[d][1,2,3]triazol-5-yl)-3-(6-((8-fluoro-1,1-dioxido-2′,3′,5′,6′-tetrahydrospiro[benzo[b][1,4,5]oxathiazepine-4,4′-pyran]-2(3H)-yl)methyl)-5-methylpyridin-2-yl)propanoic acid]
Kd [1]: < 1 nM | EC50 [2]: 1.77 nM

Cc1ccc([C@@H](c2ccn3c(C(F)F)nnc3c2C)C(C)(C)C(=O)O)nc1CN1CC2(CCOCC2)Oc2nc(OCCN3CCCC3)c(C)cc2S1(=O)=O (single isomer, unassigned) [Example 644, (*S)-3-(3-(Difluoromethyl)-8-methyl-[1,2,4]triazolo[4,3-a]pyridin-7-yl)-2,2-dimethyl-3-(5-methyl-6-((8′-methyl-1′,1′-dioxido-7′-(2-(pyrrolidin-1-yl)ethoxy)-2,3,5,6-tetrahydrospiro[pyran-4,4′-pyrido[2,3-b][1,4,5]oxathiazepin]-2′(3′H)-yl)methyl)pyridin-2-yl)propanoic Acid]
Kd [1]: < 1 nM | EC50 [2]: 51.7 nM

Cc1ccc(C(CC(=O)O)c2ccn3c(C(F)F)nnc3c2C)cc1CN1C[C@H]2CCCN2c2ncc(C#N)cc2S1(=O)=O (stereo in doubt) [Example 539, 3-(3-(((*R)-3-Cyano-5,5-dioxido-7a,8,9,10-tetrahydropyrido[2,3-f]pyrrolo[2,1-d][1,2,5]thiadiazepin-6(7H)-yl)methyl)-4-methylphenyl)-3-(3-(difluoromethyl)-8-methyl-[1,2,4]triazolo[4,3-a]pyridin-7-yl)propanoic Acid]
Kd [1]: < 1 nM | EC50 [2]: 76 nM

Cc1ccc([C@H](CC(=O)O)c2ccn3c(C(F)(F)F)nnc3c2C)nc1CN1C[C@@H]2CCCCN2c2ncccc2S1(=O)=O (single isomer, unassigned) [Example 480, (*R)-3-(6-(((*S)-5,5-Dioxido-7,7a,8,9,10,11-hexahydro-6H-dipyrido[2,1-d:2′,3′-f][1,2,5]thiadiazepin-6-yl)methyl)-5-methylpyridin-2-yl)-3-(8-methyl-3-(trifluoromethyl)-[1,2,4]triazolo[4,3-a]pyridin-7-yl)propanoic Acid]
Kd [1]: < 1 nM | EC50 [2]: 252 nM

Cc1ccc([C@H](CC(=O)O)c2ccn3c(C4CC4)nnc3c2C)cc1CN1C[C@H]2CCCN2c2ncccc2S1(=O)=O (single isomer, unassigned) [Example 168, (*S)-3-(3-Cyclopropyl-8-methyl-[1,2,4]triazolo[4,3-a]pyridin-7-yl)-3-(3-(((R)-5,5-dioxido-7a,8,9,10-tetrahydropyrido[2,3-f]pyrrolo[2,1-d][1,2,5]thiadiazepin-6(7H)-yl)methyl)-4-methylphenyl)propanoic Acid]
Kd [1]: < 1 nM | EC50 [2]: 480 nM

Cc1ccc([C@H](CC(=O)O)c2ccn3c(C(F)(F)F)nnc3c2C)cc1CN1CC2(COC2)Oc2ccc(F)cc2S1(=O)=O (single isomer, unassigned) [Example 99, (*S)-3-(3-((8-Fluoro-1,1-dioxidospiro[benzo[b][1,4,5]oxathiazepine-4,3′-oxetan]-2(3H)-yl)methyl]-4-methylphenyl)-3-(8-methyl-3-(trifluoromethyl)-[1,2,4]triazolo[4,3-a]pyridin-7-yl)propanoic Acid]
Kd [1]: < 1 nM | EC50 [2]: 5.8 nM

Cc1ccc([C@H](CC(=O)O)c2ccc3c(nnn3CC3CC3)c2C(F)F)cc1CN1CC2CCCN2c2ncccc2S1(=O)=O (stereo in doubt) [Example 66, (*S)-3-(1-(Cyclopropylmethyl)-4-(difluoromethyl-1H-benzo[d][1,2,3]triazol-5-yl)-3-(3-((R-5,5-dioxido-7a,8,9,10-tetrahydropyridi[2,3-f]pyrrolo[2,1-d][1,2,5]thiadiazepin-6(7H)-yl)methyl)-4-methylphenyl)propanoic Acid]
Kd [1]: 1 nM | EC50 [2]: 260 nM

Cc1ccc([C@@H](CC(=O)O)c2ccn3c(C(F)(F)F)nnc3c2C)nc1CN1C[C@@H]2CCCCN2c2ncccc2S1(=O)=O (single isomer, unassigned) [Example 479, (*S)-3-(6-(((*S)-5,5-Dioxido-7,7a,8,9,10,11-hexahydro-6H-dipyrido[2,1-d:2′,3′-f][1,2,5]thiadiazepin-6-yl)methyl)-5-methylpyridin-2-yl)-3-(8-methyl-3-(trifluoromethyl)-[1,2,4]triazolo[4,3-a]pyridin-7-yl)propanoic Acid]
Kd [1]: < 1 nM | EC50 [2]: 48.8 nM

Cc1cnc([C@@H](c2ccn3c(C(F)F)nnc3c2C)C(C)(C)C(=O)O)cc1CN1CC2(CCOCC2)Oc2nc(OCCN3CCCCC3)c(C)cc2S1(=O)=O (single isomer, unassigned) [Example 642, (*S)-3-(3-(Difluoromethyl)-8-methyl-[1,2,4]triazolo[4,3-a]pyridin-7-yl)-2,2-dimethyl-3-(5-methyl-4-((8′-methyl-1′,1′-dioxido-7′-(2-(piperidin-1-yl)ethoxy)-2,3,5,6-tetrahydrospiro[pyran-4,4′-pyrido[2,3-b][1,4,5]oxathiazepin]-2′(3′H)-yl)methyl)pyridin-2-yl)propanoic Acid]
Kd [1]: < 1 nM | EC50 [2]: 36.6 nM

Cc1ccc([C@H](CC(=O)O)c2ccc3c(nnn3CC3CC3)c2C(F)F)cc1CN1C[C@@H]2CCCCN2c2ncccc2S1(=O)=O (single isomer, unassigned) [Example 172, (*S)-3-(1-(Cyclopropylmethyl)-4-(difluoromethyl)-1H-benzo[d][1,2,3]triazol-5-yl)-3-(3-(((*S)-5,5-dioxido-7,7a,8,9,10,11-hexahydro-6H-dipyrido[2,1-d:2′,3′-f][1,2,5]thiadiazepin-6-yl)methyl)-4-methylphenyl)propanoic Acid]
Kd [1]: < 1 nM | EC50 [2]: 19 nM
